Measured values from patent US12649744B2, “N-(pyridin-2-yl)-6,7,8,9-tetrahydro-5h-5,8-epiminocyclohepta[c]pyridine-10-carboxamide derivatives and similar compounds as GPR65 modulators for the treatment of cancer” (PATHIOS THERAPEUTICS LIMITED, priority 2020, dated 2026).
pIC50: −log10 of the molar value. Read-outs that look alike come from different tables or passages of the source.

Target: human recombinant GPR65 (Homo sapiens, UniProt Q8IYL9)
Assay: Human GPR65 cAMP HTRF antagonist assay
Format: cell-based
Description: The “Human GPR65 cyclic adenosine monophosphate (cAMP) Homogeneous Time Resolved Fluorescence (HTRF) antagonist assay”, or simply “cAMP assay”, as described below, can be used to measure the potency of GPR65 modulators, which is expressed as the concentration of compound required to reduce the increase in cAMP concentration upon GPR65 activation by 50% (i.e. an IC50).
Human GPR65 Cyclic Adenosine Monophosphate (cAMP) Homogeneous Time Resolved Fluorescence (HTRF) Antagonist Assay Procedure
IC50 data was obtained by the following procedure:
1321N1 human astrocytoma cells stably expressing human recombinant GPR65 (1321N1-hrGPR65 cells, EuroscreenFast) were cultured according to the vendor's instructions.
Compounds were tested for their ability to antagonise GPR65, through measuring the concentration of cytoplasmic cAMP following treatment of the cells at a pH of 7.2 to activate GPR65 signalling and addition of the compound to be tested. The extent to which the expected rise in cAMP concentration upon GPR65 activation was suppressed by the added compound is indicative of its potency. The assay was carried out according to EuroscreenFast assay methodology as follows.
On the day of the assay, test compounds were added to 384-well, low volume, white microtiter plates by acoustic dispensing. KRH buffer (5 mM KCl, 1.25 mM MgSO4, 124 mM NaCl, 25 mM HEPES, 13.3 mM Glucose, 1.25 mM KH2PO4 and 1.45 mM CaCl2) was adjusted to pH 6.5, pH 7.6 and pH 8.4 by adding NaOH. 1321N1-hGPR65 cells were rapidly thawed and diluted in KRH, pH 7.6 prior to centrifugation at 300×g for 5 min and resuspension in assay buffer (KRH, pH 7.6, supplemented with 1 mM 3-isobutyl-1-methylxanthine (IBMX) and 200 μM ethylenediaminetetraacetic acid (EDTA)). Cells were added to assay plates at a density of 2,000 cells per well in a volume of 5 μl. Assay plates were briefly centrifuged at 100×g and then incubated at room temperature for 30 min. Cells were stimulated by the addition of 5 μL KRH, pH 6.5, to achieve an assay pH of 7.2, while control wells received 5 μl KRH, pH 8.4 to achieve an assay pH of 7.9. Assay plates were briefly centrifuged at 100×g and then incubated at room temperature for 30 min.
Accumulation of cAMP was detected by cAMP HTRF kit (Cisbio). d2-labeled cAMP and cryptate-labeled anti-cAMP antibody in Lysis and Detection Buffer (Cisbio) were added to assay plates, and the plates were incubated at room temperature for 1 h. HTRF measurements were performed using a Pherastar FSX instrument. Acceptor and donor emission signals were measured at 665 nm and 620 nm, respectively, and HTRF ratios were calculated as signal665 nm/signal620nm×10^4. Data were normalised to high and low control values and fitted with 4-parameter logistic regression to determine hGPR65 IC50 values for the test compounds, which are shown in Table 1.

[1] = 1321N1-hrGPR65 cells, assay pH of 7.2, cAMP HTRF, read-out: hGPR65 IC50

human recombinant GPR65, sequence (Q8IYL9 whole entry): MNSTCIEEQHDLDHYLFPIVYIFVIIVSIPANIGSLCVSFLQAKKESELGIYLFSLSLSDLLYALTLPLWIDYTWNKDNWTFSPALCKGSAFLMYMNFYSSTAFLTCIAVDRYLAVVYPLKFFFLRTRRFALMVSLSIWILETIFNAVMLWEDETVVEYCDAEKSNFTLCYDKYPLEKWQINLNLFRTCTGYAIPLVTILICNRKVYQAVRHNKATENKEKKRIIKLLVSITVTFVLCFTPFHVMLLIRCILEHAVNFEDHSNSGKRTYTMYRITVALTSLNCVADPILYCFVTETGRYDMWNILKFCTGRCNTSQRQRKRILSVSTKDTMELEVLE

| SMILES | pIC50 [1] | pIC50 |
| --- | --- | --- |
| O=C(Nc1cnc(C(F)(F)F)cn1)N1C2CCC1c1cncnc1C2 (racemic) [Compound 6, (±)-N-(5-(trifluoromethyl)pyrazin-2-yl)-6,7,8,9-tetrahydro-5H-5,8-epiminocyclohepta-[d]pyrimidine-10-carboxamide] | < 5.30 | – |
| O=C(Nc1ccc(Oc2ccccc2)nc1)N1C2CCC1c1ccnc(F)c1C2 (racemic) [Compound 8, (±)-1-fluoro-N-(6-phenoxypyridin-3-yl)-6,7,8,9-tetrahydro-5H-5,8-epiminocyclohepta-[c]pyridine-10-carboxamide] | 5.30 to 6.30 | – |
| O=C(Nc1cncc(Cl)c1)N1C2CCC1c1ccnc(F)c1C2 (racemic) [Compound 9, (±)-N-(5-chloropyridin-3-yl)-1-fluoro-6,7,8,9-tetrahydro-5H-5,8-epiminocyclohepta-[c]pyridine-10-carboxamide] | – | > 6.30 |
| O=C(Nc1cc(Cl)c(Cl)cn1)N1C2CCC1c1c[nH]c(=O)c(F)c1C2 (racemic) [Compound 11, (±)-N-(4,5-dichloropyridin-2-yl)-4-fluoro-3-oxo-3,5,6,7,8,9-hexahydro-2H-6,9-epiminocyclohepta[c]pyridine-10-carboxamide] | – | > 6.30 |
| O=C(Nc1cc(Cl)c(C(F)(F)F)cn1)N1C2CCC1c1cncnc1C2 (racemic) [Compound 28, (±)-N-(4-chloro-5-(trifluoromethyl)pyridin-2-yl)-6,7,8,9-tetrahydro-5H-5,8-epiminocyclo-hepta[d]pyrimidine-10-carboxamide] | 5.30 to 6.30 | – |
| O=C(Nc1cc(Cl)c(C(F)(F)F)cn1)N1[C@H]2CC[C@@H]1c1ccnc(F)c1C2 [Compound 1, (5R,8S)-N-(4-chloro-5-(trifluoromethyl)pyridin-2-yl)-1-fluoro-6,7,8,9-tetrahydro-5H-5,8-epiminocyclohepta[c]pyridine-10-carboxamide] | > 6.30 | – |
| O=C(Nc1cc(Cl)c(Cl)cn1)N1[C@H]2CC[C@@H]1c1ccnc(F)c1C2 [Compound 2, (5R,8S)-N-(4,5-dichloropyridin-2-yl)-1-fluoro-6,7,8,9-tetrahydro-5H-5,8-epiminocyclohepta[c]pyridine-10-carboxamide] | > 6.30 | – |
| O=C(Nc1ccc(Cl)c(Cl)n1)N1[C@H]2CC[C@@H]1c1ccnc(F)c1C2 [Compound 3, (5R,8S)-N-(5,6-dichloropyridin-2-yl)-1-fluoro-6,7,8,9-tetrahydro-5H-5,8-epiminocyclohepta[c]pyridine-10-carboxamide] | 5.30 to 6.30 | – |
| O=C(Nc1cc(Cl)c(Cl)cn1)N1[C@H]2CC[C@@H]1c1c[nH]c(=O)cc1C2 [Compound 4, (6S,9R)-N-(4,5-dichloropyridin-2-yl)-3-oxo-3,5,6,7,8,9-hexahydro-2H-6,9-epiminocyclo-hepta[c]pyridine-10-carboxamide] | > 6.30 | – |
| O=C(Nc1ccc(Cl)c(Cl)n1)N1[C@H]2CC[C@@H]1c1c[nH]c(=O)cc1C2 [Compound 5, (6S,9R)-N-(5,6-dichloropyridin-2-yl)-3-oxo-3,5,6,7,8,9-hexahydro-2H-6,9-epiminocyclo-hepta[c]pyridine-10-carboxamide] | < 5.30 | – |
| O=C(Nc1ccc2nc(C(F)(F)F)ccc2c1)N1[C@H]2CC[C@@H]1c1c[nH]c(=O)cc1C2 [Compound 10, (6S,9R)-3-oxo-N-(2-(trifluoromethyl)quinolin-6-yl)-3,5,6,7,8,9-hexahydro-2H-6,9-epiminocyclohepta[c]pyridine-10-carboxamide] | > 6.30 | – |
| O=C(Nc1cnc(Cl)c(Cl)c1)N1[C@H]2CC[C@@H]1c1c[nH]c(=O)cc1C2 [Compound 13, (6S,9R)-N-(5,6-dichloropyridin-3-yl)-3-oxo-3,5,6,7,8,9-hexahydro-2H-6,9-epiminocyclo-hepta[c]pyridine-10-carboxamide] | > 6.30 | – |
| O=C(Nc1cc(C(F)(F)F)ncc1F)N1[C@H]2CC[C@@H]1c1c[nH]c(=O)cc1C2 [Compound 14, (6S,9R)-N-(5-fluoro-2-(trifluoromethyl)pyridin-4-yl)-3-oxo-3,5,6,7,8,9-hexahydro-2H-6,9-epiminocyclohepta[c]pyridine-10-carboxamide] | 5.30 to 6.30 | – |
| O=C(Nc1cnc(-n2nccn2)c(Cl)c1)N1[C@H]2CC[C@@H]1c1ccnc(F)c1C2 [Compound 15, (5R,8S)-N-(5-chloro-6-(2H-1,2,3-triazol-2-yl)pyridin-3-yl)-1-fluoro-6,7,8,9-tetrahydro-5H-5,8-epiminocyclohepta[c]pyridine-10-carboxamide] | 5.30 to 6.30 | – |
| O=C(Nc1cnc(Cl)cc1F)N1[C@H]2CC[C@@H]1c1ccnc(F)c1C2 [Compound 16, (5R,8S)-N-(6-chloro-4-fluoropyridin-3-yl)-1-fluoro-6,7,8,9-tetrahydro-5H-5,8-epiminocyclohepta[c]pyridine-10-carboxamide] | 5.30 to 6.30 | – |
| O=C(Nc1cc(Cl)c(C(F)(F)F)cn1)N1[C@H]2CC[C@@H]1c1c[nH]c(=O)cc1C2 [Compound 17, (6S,9R)-N-(4-chloro-5-(trifluoromethyl)pyridin-2-yl)-3-oxo-3,5,6,7,8,9-hexahydro-2H-6,9-epiminocyclohepta[c]pyridine-10-carboxamide] | > 6.30 | – |
| O=C(Nc1cc(C(F)(F)F)ncc1F)N1[C@H]2CC[C@@H]1c1ccnc(F)c1C2 [Compound 18, (5R,8S)-1-fluoro-N-(5-fluoro-2-(trifluoromethyl)pyridin-4-yl)-6,7,8,9-tetrahydro-5H-5,8-epiminocyclohepta[c]pyridine-10-carboxamide] | 5.30 to 6.30 | – |
| O=C(Nc1ccc(C(F)(F)F)cn1)N1[C@H]2CC[C@@H]1c1ccnc(F)c1C2 [Compound 19, (5R,8S)-1-fluoro-N-(5-(trifluoromethyl)pyridin-2-yl)-6,7,8,9-tetrahydro-5H-5,8-epiminocyclohepta[c]pyridine-10-carboxamide] | > 6.30 | – |
| O=C(Nc1nc(Cl)c(Cl)cc1F)N1[C@H]2CC[C@@H]1c1ccnc(F)c1C2 [Compound 20, (5R,8S)-N-(5,6-dichloro-3-fluoropyridin-2-yl)-1-fluoro-6,7,8,9-tetrahydro-5H-5,8-epiminocyclohepta[c]pyridine-10-carboxamide] | 5.30 to 6.30 | – |
| Cc1nonc1NC(=O)N1[C@H]2CC[C@@H]1c1ccnc(F)c1C2 [Compound 21, (5R,8S)-1-fluoro-N-(4-methyl-1,2,5-oxadiazol-3-yl)-6,7,8,9-tetrahydro-5H-5,8-epiminocyclohepta[c]pyridine-10-carboxamide] | 5.30 to 6.30 | – |
| O=C(Nc1noc(-c2ccccc2)n1)N1[C@H]2CC[C@@H]1c1ccnc(F)c1C2 [Compound 22, (5R,8S)-1-fluoro-N-(5-phenyl-1,2,4-oxadiazol-3-yl)-6,7,8,9-tetrahydro-5H-5,8-epiminocyclohepta[c]pyridine-10-carboxamide] | > 6.30 | – |
| O=C(Nc1nnc(C(F)(F)F)s1)N1[C@H]2CC[C@@H]1c1ccnc(F)c1C2 [Compound 23, (5R,8S)-1-fluoro-N-(5-(trifluoromethyl)-1,3,4-thiadiazol-2-yl)-6,7,8,9-tetrahydro-5H-5,8-epiminocyclohepta[c]pyridine-10-carboxamide] | > 6.30 | – |
| O=C(Nc1nnc(-c2ccncc2)s1)N1[C@H]2CC[C@@H]1c1ccnc(F)c1C2 [Compound 24, (5R,8S)-1-fluoro-N-(5-(pyridin-4-yl)-1,3,4-thiadiazol-2-yl)-6,7,8,9-tetrahydro-5H-5,8-epiminocyclohepta[c]pyridine-10-carboxamide] | 5.30 to 6.30 | – |
| O=C(Nc1ncc(C(F)(F)F)cn1)N1[C@H]2CC[C@@H]1c1ccnc(F)c1C2 [Compound 25, (5R,8S)-1-fluoro-N-(5-(trifluoromethyl)pyrimidin-2-yl)-6,7,8,9-tetrahydro-5H-5,8-epiminocyclohepta[c]pyridine-10-carboxamide] | 5.30 to 6.30 | – |
| CCc1nnc(NC(=O)N2[C@H]3CC[C@@H]2c2ccnc(F)c2C3)s1 [Compound 26, (5R,8S)-N-(5-ethyl-1,3,4-thiadiazol-2-yl)-1-fluoro-6,7,8,9-tetrahydro-5H-5,8-epiminocyclohepta[c]pyridine-10-carboxamide] | 5.30 to 6.30 | – |
| O=C(Nc1cc2cn(C(F)F)nc2cn1)N1[C@H]2CC[C@@H]1c1ccnc(F)c1C2 [Compound 27, (5R,8S)-N-(2-(difluoromethyl)-2H-pyrazolo[3,4-c]pyridin-5-yl)-1-fluoro-6,7,8,9-tetrahydro-5H-5,8-epiminocyclohepta[c]pyridine-10-carboxamide] | < 5.30 | – |
